From patent US9120749B2, “Quinoline derivatives and MELK inhibitors containing the same” (ONCOTHERAPY SCIENCE, INC., priority 2010, dated 2015)

Assays:
A549 cells = test: Cell-based assay: anti-proliferative activity, Cell Counting Kit-8, 72 hours (A549); settings: Homo sapiens, A549, 72 h, MELK-expressing, Cell Counting Kit-8 at 72 hours
Procedure, shortened: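 Cell Counting Kit-8 read-out of A549 growth after 72 hours of inhibitor exposure, cells plated in 96-well format. Values reported as IC50.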

MELK = MELK (Homo sapiens, UniProt Q14680); test: Kinase assay: MELK activity, phosphorylation of FITC-labeled histone H3 peptide measured by IMAP fluorescence polarization; assay type: biochemical; settings: 50 micro-M ATP, FITC-labeled histone H3 peptide substrate, IMAP fluorescence polarization; read-out: IC50 (μM) (kinase assay)
Procedure, shortened: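 Fluorescence polarization was measured 0.5 h (room temperature) after quenching with threefold volume of progressive binding solution. Test compounds from 12.5 mM DMSO stocks were assayed at 1% DMSO.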

T47D cells = test: Cell-based assay: anti-proliferative activity, Cell Counting Kit-8, 72 hours (T47D); settings: Homo sapiens, T47D, 72 h, MELK-expressing, Cell Counting Kit-8 at 72 hours
Procedure, shortened: (§1)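 Proliferation read with Cell Counting Kit-8 after 72 hours of inhibitor treatment, from seeding of 2,000–3,000 cells/well. Lines: T47D, A549, BT-549; HT-1197, lacking MELK by western blot, served as negative control. IC50 derived.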

BT-549 cells = test: Cell-based assay: anti-proliferative activity, Cell Counting Kit-8, 72 hours (BT-549); settings: Homo sapiens, BT-549, 72 h, BT549 cells, MELK-expressing; Cell Counting Kit-8 at 72 hours
Procedure, shortened: as §1

HT-1197 cells = test: Cell-based assay: anti-proliferative activity, Cell Counting Kit-8, 72 hours (HT-1197, negative control without MELK expression); settings: Homo sapiens, HT1197, 72 h, HT1197 cells, no MELK expression (negative control); Cell Counting Kit-8 at 72 hours
Procedure, shortened: as §1

MELK, sequence (Q14680 whole entry, looked up): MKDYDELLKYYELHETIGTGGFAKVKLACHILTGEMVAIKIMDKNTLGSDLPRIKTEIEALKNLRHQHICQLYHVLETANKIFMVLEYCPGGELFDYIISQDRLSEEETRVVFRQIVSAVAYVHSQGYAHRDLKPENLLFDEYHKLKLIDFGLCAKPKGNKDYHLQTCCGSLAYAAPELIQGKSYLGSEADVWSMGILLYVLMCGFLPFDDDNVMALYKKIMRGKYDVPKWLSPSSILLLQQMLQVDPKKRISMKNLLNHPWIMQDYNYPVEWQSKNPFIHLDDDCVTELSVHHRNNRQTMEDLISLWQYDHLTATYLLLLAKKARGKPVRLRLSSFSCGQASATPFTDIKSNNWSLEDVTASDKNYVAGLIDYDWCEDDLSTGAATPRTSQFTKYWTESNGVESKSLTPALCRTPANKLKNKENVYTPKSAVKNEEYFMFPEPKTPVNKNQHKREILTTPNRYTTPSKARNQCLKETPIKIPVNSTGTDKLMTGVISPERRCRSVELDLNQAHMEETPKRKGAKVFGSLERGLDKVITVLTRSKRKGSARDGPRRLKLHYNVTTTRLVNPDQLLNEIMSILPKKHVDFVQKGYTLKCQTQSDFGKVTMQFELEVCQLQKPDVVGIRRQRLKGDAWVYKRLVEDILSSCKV

Row | SMILES | IC50 (A549 cells) | IC50 (MELK) | IC50 (T47D cells) | IC50 (BT-549 cells) | IC50 (HT-1197 cells)
1 | COc1cc(-c2ccc3ncc(C(=O)C4CC4)c(N[C@H]4CC[C@@H](N)CC4)c3c2)ccc1O [Example 165, {4-(cis-4-Aminocyclohexylamino)-6-(4-hydroxy-3-methoxyphenyl)quinolin-3-yl}(cyclopropyl)methanone] | 0.45 µM | 0.0019 µM | 0.57 µM | 0.93 µM | 2.1 µM
2 | COc1cc(-c2ccc3ncc(S(C)(=O)=O)c(N4CCC(C(C)N(C)C)CC4)c3c2)cc(Cl)c1O (stereo not shown) [Example 245, 2-Chloro-4-[4-{4-[1-(dimethylamino)ethyl]piperidin-1-yl}-3-(methylsulfonyl)quinolin-6-yl]-6-methoxyphenol] | 0.25 µM | 0.0016 µM | 0.35 µM | 0.74 µM | 2.3 µM
3 | COc1cc(-c2ccc3ncc(C(=O)C4CC4)c(N[C@H]4CC[C@H](N5CCCC5)CC4)c3c2)cc(Cl)c1O [Example 343, {6-(3-Chloro-4-hydroxy-5-methoxyphenyl)-4-[trans-4-(pyrrolidin-1-yl)cyclohexylamino]quinolin-3-yl}(cyclopropyl)methanone] | 0.2 µM | 0.0021 µM | 0.33 µM | 0.68 µM | 3.4 µM
4 | COc1cc(-c2ccc3ncc(C(=O)C4CC4)c(N4CCC(CN5CCOCC5)CC4)c3c2)cc(Cl)c1O [Example 334, {6-(3-Chloro-4-hydroxy-5-methoxyphenyl)-4-[4-(morpholinomethyl)piperidin-1-yl]quinolin-3-yl}(cyclopropyl)methanone] | 0.41 µM | 0.0081 µM | 0.55 µM | 0.77 µM | 4.8 µM
5 | CC(C)C(=O)c1cnc2ccc(-c3ccc(C#N)nc3)cc2c1N[C@H]1CC[C@H](N)CC1 [Example 108, 5-{4-[trans-4-Aminocyclohexylamino]-3-isobutyrylquinolin-6-yl}picolinonitrile] | 13 µM | 0.03 µM | 6.1 µM | 14 µM | 15 µM
6 | CC(C1CCN(c2c(C(=O)C3CC3)cnc3ccc(-c4cc(F)c(O)c(Cl)c4)cc23)CC1)N(C)C (stereo not shown) [Example 269, [6-(3-Chloro-5-fluoro-4-hydroxyphenyl)-4-{4-[1-(dimethylamino)ethyl]piperidin-1-yl}quinolin-3-yl](cyclopropyl)methanone] | 0.44 µM | 0.0037 µM | 0.22 µM | 0.5 µM | 1.3 µM
7 | COc1cc(-c2ccc3ncc(C(C)=O)c(N4CCC(CN5CCCC5)CC4)c3c2)cc(Cl)c1O [Example 321, 1-{6-(3-Chloro-4-hydroxy-5-methoxyphenyl)-4-[4-(pyrrolidin-1-ylmethyl)piperidin-1-yl]quinolin-3-yl}ethanone] | 0.18 µM | 0.0027 µM | 0.19 µM | 0.29 µM | 5.1 µM
8 | CN1CCN(C2CCN(c3c(C(=O)C4CC4)cnc4ccc(-c5cc(F)c(O)c(Cl)c5)cc34)CC2)CC1 [Example 349, {6-(3-Chloro-5-fluoro-4-hydroxyphenyl)-4-[4-(4-methylpiperazin-1-yl)piperidin-1-yl]quinolin-3-yl}(cyclopropyl)methanone] | 0.98 µM | 0.0046 µM | 0.49 µM | 0.91 µM | 5.8 µM
9 | N[C@H]1CC[C@@H](Nc2c(C(=O)C3CC3)cnc3ccc(-c4cc(F)c(O)c(F)c4)cc23)CC1 [Example 180, [4-(cis-4-Aminocyclohexylamino)-6-(3,5-difluoro-4-hydroxyphenyl)quinolin-3-yl](cyclopropyl)methanone] | 0.9 µM | 0.0026 µM | 0.17 µM | 0.3 µM | 4.5 µM
10 | COc1cc(-c2ccc3ncc(C(=O)C4CC4)c(N4CCC(CN5CCCC5)CC4)c3c2)cc(Cl)c1O [Example 280, {6-(3-Chloro-4-hydroxy-5-methoxyphenyl)-4-[4-(pyrrolidin-1-ylmethyl)piperidin-1-yl]quinolin-3-yl}(cyclopropyl)methanone] | 0.2 µM | 0.0017 µM | 0.25 µM | 0.71 µM | 2.9 µM
11 | CN1CCC(CNc2c(C(=O)C3CC3)cnc3ccc(-c4cc(F)c(O)c(Cl)c4)cc23)CC1 [Example 270, {6-(3-Chloro-5-fluoro-4-hydroxyphenyl)-4-[(1-methylpiperidin-4-yl)methylamino]quinolin-3-yl}(cyclopropyl)methanone] | 0.69 µM | 0.021 µM | 0.51 µM | 1.1 µM | 2.9 µM
12 | CN(C)[C@H]1CC[C@H](Nc2c(C(=O)C3CC3)cnc3ccc(-c4cc(Cl)c(O)c(Cl)c4)cc23)CC1 [Example 263, Cyclopropyl{6-(3,5-dichloro-4-hydroxyphenyl)-4-[trans-4-(dimethylamino)cyclohexylamino]quinolin-3-yl}methanone] | 0.2 µM | 0.0017 µM | 0.13 µM | 0.41 µM | 1.2 µM
13 | COc1cc(-c2ccc3ncc(C(=O)C4CC4)c(NC[C@H]4CC[C@H](N(C)C)CC4)c3c2)cc(Cl)c1O [Example 315] | 0.3 µM | 0.0043 µM | 0.64 µM | 1.4 µM | 3 µM
14 | COc1cc(-c2ccc3ncc(C(=O)C4CC4)c(N4CCC(CN(C)C)CC4)c3c2)cc(Cl)c1O [Example 276, [6-(3-Chloro-4-hydroxy-5-methoxyphenyl)-4-{4-[(dimethylamino)methyl]piperidin-1-yl}quinolin-3-yl](cyclopropyl)methanone] | 0.21 µM | 0.0008 µM | 0.16 µM | 0.58 µM | 1.8 µM
15 | N#Cc1ncc(-c2ccc3ncc(C(=O)C4CC4)c(N[C@H]4CC[C@H](N)CC4)c3c2)cn1 [Example 96, 5-{4-[trans-4-Aminocyclohexylamino]-3-(cyclopropanecarbonyl)quinolin-6-yl}pyrimidine-2-carbonitrile] | 1.3 µM | 0.0024 µM | 0.29 µM | 0.93 µM | 1.5 µM
16 | CC(=O)c1cnc2ccc(-c3cc(F)c(O)c(Cl)c3)cc2c1N1CCC(CN2CCCC2)CC1 [Example 336, 1-{6-(3-Chloro-5-fluoro-4-hydroxyphenyl)-4-[4-(pyrrolidin-1-ylmethyl)piperidin-1-yl]quinolin-3-yl}ethanone] | 0.8 µM | 0.0069 µM | 0.33 µM | 0.85 µM | 5 µM
17 | CN(C)CC1CCN(c2c(C(=O)C3CC3)cnc3ccc(-c4ccc(O)c(Cl)c4)cc23)CC1 [Example 279, [6-(3-Chloro-4-hydroxyphenyl)-4-{4-[(dimethylamino)methyl]piperidin-1-yl}quinolin-3-yl](cyclopropyl)methanone] | 0.3 µM | 0.0046 µM | 0.21 µM | 0.86 µM | 6.7 µM
18 | CC(C)C(=O)c1cnc2ccc(-c3cc(F)c(O)c(F)c3)cc2c1N[C@H]1CC[C@H](N)CC1 [Example 214, 1-{4-[trans-4-Aminocyclohexylamino]-6-(3,5-difluoro-4-hydroxyphenyl)quinolin-3-yl}-2-methylpropan-1-one] | 0.65 µM | 0.043 µM | 0.048 µM | 0.084 µM | 1.4 µM
19 | COc1cc(-c2ccc3ncc(C(=O)C4CC4)c(N4CCC(CN(C)C)CC4)c3c2)ccc1O [Example 133, Cyclopropyl[4-{4-[(dimethylamino)methyl]piperidin-1-yl}-6-(4-hydroxy-3-methoxyphenyl)quinolin-3-yl]methanone] | 0.79 µM | 0.0036 µM | 0.7 µM | 1.7 µM | 1.9 µM
20 | CC(C1CCN(c2c(C(=O)C3CC3)cnc3ccc(-c4cc(F)c(O)c(F)c4)cc23)CC1)N(C)C (stereo not shown) [Example 181, Cyclopropyl[6-(3,5-difluoro-4-hydroxyphenyl)-4-{4-[1-(dimethylamino)ethyl]piperidin-1-yl}quinolin-3-yl]methanone] | 0.7 µM | 0.011 µM | 0.47 µM | 0.73 µM | 1.1 µM
21 | N[C@H]1CC[C@H](Nc2c(C(=O)C3CC3)cnc3ccc(-c4ccncc4)cc23)CC1 [Example 212, {4-[trans-4-Aminocyclohexylamino]-6-(pyridin-4-yl)quinolin-3-yl}(cyclopropyl)methanone] | 0.99 µM | 0.054 µM | 2.7 µM | 2.5 µM | 7.2 µM
22 | N[C@H]1CC[C@H](Nc2c(C(=O)C3CC3)cnc3ccc(-c4cc(Cl)c(O)c(Cl)c4)cc23)CC1 [Example 157(a), {4-[trans-4-Aminocyclohexylamino]-6-(3,5-dichloro-4-hydroxyphenyl)quinolin-3-yl}(cyclopropyl)methanone] | 0.57 µM | 0.0076 µM | 0.15 µM | 0.33 µM | 3.7 µM
23 | COc1cc(-c2ccc3ncc(C(=O)C4CC4)c(N4CCC5(CCNC5)CC4)c3c2)cc(Cl)c1O [Example 155, [6-(3-Chloro-4-hydroxy-5-methoxyphenyl)-4-(2,8-diazaspiro[4,5]decan-8-yl)quinolin-3-yl](cyclopropyl)methanone] | 0.68 µM | 0.004 µM | 0.43 µM | 0.79 µM | 2.4 µM
